Tests used:
NCI-H358 = assay: Antiproliferative activity against human NCI-H358 cells assessed as reduction in cell viability; format: functional, cell-based
GTPase KRas [1] = target: GTPase KRas (Homo sapiens, UniProt P01116, G12C); assay: Inhibition of KRAS G12C mutant in human NCI-H358 cells incubated for 24 hrs by Western blot analysis; format: cell-based
MIA PaCa-2 = assay: Antiproliferative activity against human MIA PaCa-2 cells assessed as reduction in cell viability; format: functional, cell-based
DLD-1 = assay: Antiproliferative activity against human DLD-1 cells assessed as inhibition of cell growth incubated for 72 hrs by MTS assay; format: functional, cell-based; conditions: DLD-1, 72 h
HT-1080 = assay: Cytotoxicity against human HT-1080 cells assessed as reduction in cell viability incubated for 48 hrs by MTT assay; format: functional, cell-based; conditions: HT-1080, 48 h
GTPase KRas [2] = target: GTPase KRas (Homo sapiens, UniProt P01116, G12D); assay: Binding affinity to KRAS G12D mutant (unknown origin) assessed as dissociation constant by SPR analysis
Chain of GTPase KRas (Homo sapiens, UniProt P01116, G12D) (P01116 whole entry G12D): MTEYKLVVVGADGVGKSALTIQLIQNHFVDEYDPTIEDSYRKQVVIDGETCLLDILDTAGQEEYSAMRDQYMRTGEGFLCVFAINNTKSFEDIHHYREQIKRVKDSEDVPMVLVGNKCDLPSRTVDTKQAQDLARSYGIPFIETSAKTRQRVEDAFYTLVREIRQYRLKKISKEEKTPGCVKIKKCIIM

Chain of GTPase KRas (Homo sapiens, UniProt P01116, G12C) (P01116 whole entry G12C): as the sequence (P01116 whole entry G12D) above, with D12C counted along it

C=CC(=O)N1CC2(CC(n3nc(-c4ccc5c(cnn5C)c4)c(-c4c(Cl)c(C)cc5[nH]ncc45)c3C)C2)C1 [OPNURASIB]
IC50 (NCI-H358): 18 nM
IC50 (GTPase KRas [1]): 10 nM

C=CC(=O)N1CCN(c2nc(=O)n(-c3c(C)ccnc3C(C)C)c3nc(-c4c(O)cccc4F)c(F)cc23)[C@@H](C)C1 [SOTORASIB]
IC50 (MIA PaCa-2): 100 nM

C=CC(=O)N1CCN2C(=O)Cc3cc(F)c(-c4ccc(F)c5sc(N)c(C#N)c45)c(Cl)c3OCC2C1 (stereo not drawn)
IC50 (GTPase KRas [1]): 3.35 nM

NC1(C(=O)NCCCn2cc(-c3ccc(OC(F)(F)F)cc3)c3cc(CN4CCN(Cc5c(Cl)cccc5Cl)CC4)ccc32)CCNCC1
IC50 (GTPase KRas [1]): 1000 nM

COc1nc(-c2cccc3c2OCCO3)ccc1Nc1ccc(CN(C)C)cc1
IC50 (DLD-1): 8000 nM
IC50 (HT-1080): 10000 nM
Kd (GTPase KRas [2]): 51 nM
